Experimental findings from US20210092956A1, “Safening Rice Against Group 15 Herbicides” (THE BOARD OF TRUSTEES OF THE UNIVERSITY OF ARKANSAS, priority 2019, published 2021) are described below.

The test system of one data set is barnyardgrass. Nature of the data set: Field weed control with ME acetochlor, barnyardgrass. The format is in vivo, Echinochloa crus-galli. As to conditions: fenclorim seed treatment with ME acetochlor. As to the method:
(§1) The experiment was conducted under standard small-plot research practices. Diamond rice was planted at 72 seeds m^−1 row. […] Data were analyzed using R and subjected ANOVA. Means were separated using Fisher's LSD (α=0.05).

In the next data set the test system is weedy rice or red rice. Nature of the data set: Field weed control with ME acetochlor, weedy rice. Particulars: fenclorim seed treatment with ME acetochlor. The data set is classed as in vivo, Oryza sativa L. var. sylvatica. As to the method: as §1
Another data set deals with Diamond rice. Also on record: species or system Oryza sativa L. As to conditions: in vivo. The protocol:
The experiment was conducted within a growth chamber at 13.8° C. (night) and 23.8° C. (day) using a 10-hour night and 14-hour day photoperiod. Diamond rice was planted in pots filled to the same weight of soil to maintain 80% soil moisture throughout the experiment. […] Data were analyzed using R and subjected to ANOVA. Means were separated using Fisher's LSD (α=0.05).

With `Clc1cc(Cl)nc(-c2ccccc2)n1` [fenclorim, 4,6-dichloro-2-phenyl-pyrimidine], in the data set on barnyardgrass, the “effect of the seed treatment on weed control” value is given as “did not negatively affect weed control”. The “effect of the seed treatment on weed control” value in the data set with weedy rice or red rice was “did not negatively affect weed control”. In the data set with Diamond rice, this molecule yielded a Biomass of 99%, a Height of 13.7 cm, an Injury of 0% and a Stand reduction of 3%.
